32 compounds from patent US8178522B2, “Thiazoles” (Hoffmann-La Roche Inc., priority 2009, dated 2012) can be followed below.

The experiment has as its target T1, GABA A α5 (α5β3γ2) (Homo sapiens, UniProt P18507+P31644).
T1 construct: expressed in transfected cells; host or cells: HEK293, transiently transfected; membrane preparation
Description: [3H]flumazenil competition binding, human GABA A α5 receptor. The method, then: Membrane Preparation and Binding Assay
The affinity of compounds at GABA A receptor subtypes was measured by competition for [3H]flumazenil (85 Ci/mmol; Roche) binding to HEK293 cells expressing rat (stably transfected) or human (transiently transfected) receptors of compositional α1β3γ2, α2β3γ2, α3β3γ2 and α5β3γ2.
Cell pellets were suspended in Krebs-tris buffer (4.8 mM KCl, 1.2 mM CaCl2, 1.2 mM MgCl2, 120 mM NaCl, 15 mM Tris; pH 7.5; binding assay buffer), homogenized by polytron for ca. 20 sec on ice and centrifuged for 60 min at 4° C. (50000 g; Sorvall, rotor: SM24=20000 rpm). The cell pellets were re-suspended in Krebs-tris buffer and homogenized by polytron for ca. 15 sec on ice. Protein was measured (Bradford method, Bio-Rad) and aliquots of 1 mL were prepared and stored at −80° C.
Assays were incubated to equilibrium for 1 hour at 4° C. and harvested onto GF/C uni-filters (Packard) by filtration using a Packard harvester and washing with ice-cold wash buffer (50 mM Tris; pH 7.5). After drying, filter-retained radioactivity was detected by liquid scintillation counting. Ki values were calculated using Excel-Fit (Microsoft) and are the means of two determinations.

Setting [1] is: human receptor α5β3γ2 transiently transfected in HEK293 cells, competition for [3H]flumazenil 0.5 nM, 1 hour at 4° C., means of two determinations, read-out: hKi GABA A α5.

Each structure is given as a SMILES string. pKi: −log10 of the molar value. Read-outs that look alike come from different tables or passages of the source.

Take `CCCCc1noc(C)c1CCc1ncc(C(=O)N[C@@H](C)CO)s1` [Example 61, 2-[2-(3-Butyl-5-methyl-isoxazol-4-yl)-ethyl]-thiazole-5-carboxylic acid ((S)-2-hydroxy-1-methyl-ethyl)-amide]: the pKi under setting [1] is 7.36.

`Cc1nc(CCc2c(-c3ccccn3)noc2C)sc1C(=O)NCC1CC1` [Example 12, 4-Methyl-2-[2-(5-methyl-3-pyridin-2-yl-isoxazol-4-yl)-ethyl]-thiazole-5-carboxylic acid cyclopropylmethyl-amide]: the pKi under setting [1] is 7.87.

Regarding `Cc1onc(-c2ccc(F)cn2)c1/C=C/c1ncc(C(=O)NC2CCOCC2)s1` [Example 77, 2-{(E)-2-[3-(5-Fluoro-pyridin-2-yl)-5-methyl-isoxazol-4-yl]-vinyl}-thiazole-5-carboxylic acid (tetrahydro-pyran-4-yl)-amide], the pKi under setting [1] was 8.46.

For the compound `CCCCc1noc(C)c1COc1ncc(C(=O)NCCO)s1` [Example 134, 2-(3-Butyl-5-methyl-isoxazol-4-ylmethoxy)-thiazole-5-carboxylic acid (2-hydroxy-ethyl)-amide], the pKi under setting [1] is 7.67.

As to `CCCCc1noc(C)c1/C=C/c1nc(C)c(C(=O)NCC)s1` [Example 121, 2-[(E)-2-(3-Butyl-5-methyl-isoxazol-4-yl)-vinyl]-4-methyl-thiazole-5-carboxylic acid ethylamide], the pKi under setting [1] is 8.30.

With `CCCCc1noc(C)c1CCc1ncc(C(=O)NC2CCOCC2)s1` [Example 59, 2-[2-(3-Butyl-5-methyl-isoxazol-4-yl)-ethyl]-thiazole-5-carboxylic acid (tetrahydro-pyran-4-yl)-amide], under setting [1], the pKi is 7.49.

As to `Cc1nc(CCc2c(-c3ccc(F)cn3)noc2C)sc1C(=O)N1CCSCC1` [Example 37, (2-{2-[3-(5-Fluoro-pyridin-2-yl)-5-methyl-isoxazol-4-yl]-ethyl}-4-methyl-thiazol-5-yl)-thiomorpholin-4-yl-methanone], under setting [1], the pKi was 7.25.

On to `CCCCc1noc(C)c1/C=C/c1nc(C)c(C(=O)NC2CCOCC2)s1` [Example 96, 2-[(E)-2-(3-Butyl-5-methyl-isoxazol-4-yl)-vinyl]-4-methyl-thiazole-5-carboxylic acid (tetrahydro-pyran-4-yl)-amide], for which, under setting [1], the pKi is 8.82.

Turning to `Cc1nc(CCc2c(-c3ccccn3)noc2C)sc1C(=O)NC1CCOCC1` [Example 9, 4-Methyl-2-[2-(5-methyl-3-pyridin-2-yl-isoxazol-4-yl)-ethyl]-thiazole-5-carboxylic acid (tetrahydro-pyran-4-yl)-amide], the pKi under setting [1] is 8.24.

As to `Cc1nc(CCc2c(-c3ccccn3)noc2C)sc1C(=O)NCCO` [Example 14, 4-Methyl-2-[2-(5-methyl-3-pyridin-2-yl-isoxazol-4-yl)-ethyl]-thiazole-5-carboxylic acid (2-hydroxy-ethyl)-amide], the pKi under setting [1] is 7.85.

Take `Cc1onc(-c2ccc(F)cn2)c1/C=C/c1ncc(C(N)=O)s1` [Example 81, 2-{(E)-2-[3-(5-Fluoro-pyridin-2-yl)-5-methyl-isoxazol-4-yl]-vinyl}-thiazole-5-carboxylic acid amide]: the pKi under setting [1] is 8.26.

On to `Cc1onc(-c2ccc(F)cn2)c1CCc1ncc(C(=O)NCCO)s1` [Example 45, 2-{2-[3-(5-Fluoro-pyridin-2-yl)-5-methyl-isoxazol-4-yl]-ethyl}-thiazole-5-carboxylic acid (2-hydroxy-ethyl)-amide], for which the pKi under setting [1] was 7.58.

In the case of `CCCCc1noc(C)c1/C=C/c1nc(C)c(C(=O)NC(C)CO)s1` (racemic) [Example 97, Rac-2-[(E)-2-(3-Butyl-5-methyl-isoxazol-4-yl)-vinyl]-4-methyl-thiazole-5-carboxylic acid (2-hydroxy-1-methyl-ethyl)-amide], under setting [1], the pKi is 8.33.

Consider `COC(=O)c1sc(CCc2c(-c3ccc(F)cn3)noc2C)nc1C` [Example 30, 2-{2-[3-(5-Fluoro-pyridin-2-yl)-5-methyl-isoxazol-4-yl]-ethyl}-4-methyl-thiazole-5-carboxylic acid methyl ester], for which the pKi under setting [1] is 7.63.

For `CCCCc1noc(C)c1CCc1ncc(C(=O)NC(C)C)s1` [Example 57, 2-[2-(3-Butyl-5-methyl-isoxazol-4-yl)-ethyl]-thiazole-5-carboxylic acid isopropylamide], under setting [1], the pKi was 7.41.

For `CCNC(=O)c1sc(CCc2c(-c3ccc(F)cn3)noc2C)nc1C` [Example 38, 2-{2-[3-(5-Fluoro-pyridin-2-yl)-5-methyl-isoxazol-4-yl]-ethyl}-4-methyl-thiazole-5-carboxylic acid ethylamide], under setting [1], the pKi is 7.97.

As for `Cc1nc(CCc2c(-c3ccc(F)cn3)noc2C)sc1C(=O)NC(C)C` [Example 32, 2-{2-[3-(5-Fluoro-pyridin-2-yl)-5-methyl-isoxazol-4-yl]-ethyl}-4-methyl-thiazole-5-carboxylic acid isopropylamide], the pKi under setting [1] was 8.15.

Take `CCCCc1noc(C)c1/C=C/c1nc(C)c(C(=O)NN2CCOCC2)s1` [Example 103, 2-[(E)-2-(3-Butyl-5-methyl-isoxazol-4-yl)-vinyl]-4-methyl-thiazole-5-carboxylic acid morpholin-4-ylamide]: under setting [1], the pKi is 8.74.

In the case of `Cc1nc(/C=C/c2conc2-c2ccc(F)cn2)sc1C(=O)NC1CCOCC1` [Example 90, 2-{(E)-2-[3-(5-Fluoro-pyridin-2-yl)-isoxazol-4-yl]-vinyl}-4-methyl-thiazole-5-carboxylic acid (tetrahydro-pyran-4-yl)-amide], the pKi under setting [1] was 7.61.

In the case of `CCCCc1noc(C)c1CCc1nc(C)c(C(=O)N[C@@H](C)CO)s1` [Example 54, 2-[2-(3-Butyl-5-methyl-isoxazol-4-yl)-ethyl]-4-methyl-thiazole-5-carboxylic acid ((S)-2-hydroxy-1-methyl-ethyl)-amide], the pKi under setting [1] is 7.80.

In the case of `CCCCc1noc(C)c1/C=C/c1nc(C)c(C(=O)NC(C)C)s1` [Example 93, 2-[(E)-2-(3-Butyl-5-methyl-isoxazol-4-yl)-vinyl]-4-methyl-thiazole-5-carboxylic acid isopropylamide], under setting [1], the pKi is 8.72.

As for `CNC(=O)c1sc(CCc2c(-c3ccc(F)cn3)noc2C)nc1C` [Example 39, 2-{2-[3-(5-Fluoro-pyridin-2-yl)-5-methyl-isoxazol-4-yl]-ethyl}-4-methyl-thiazole-5-carboxylic acid methylamide], the pKi under setting [1] is 7.60.

With `Cc1onc(-c2ccccn2)c1CCc1ncc(C(=O)NCC(F)(F)F)s1` [Example 28, 2-[2-(5-Methyl-3-pyridin-2-yl-isoxazol-4-yl)-ethyl]-thiazole-5-carboxylic acid (2,2,2-trifluoro-ethyl)-amide], the pKi under setting [1] is 7.75.

For `CCCCc1noc(C)c1/C=C/c1nc(C)c(C(=O)N2CCOCC2)s1` [Example 120, {2-[(E)-2-(3-Butyl-5-methyl-isoxazol-4-yl)-vinyl]-4-methyl-thiazol-5-yl}-morpholin-4-yl-methanone], the pKi under setting [1] is 7.24.

With `CCCCc1noc(C)c1COc1ncc(C(=O)NC(C)CO)s1` (racemic) [Example 133, Rac-2-(3-Butyl-5-methyl-isoxazol-4-ylmethoxy)-thiazole-5-carboxylic acid (2-hydroxy-1-methyl-ethyl)-amide], the pKi under setting [1] is 7.72.

With `Cc1nc(CCc2c(-c3ccc(F)cn3)noc2C)sc1C(=O)NC1CCOCC1` [Example 31, 2-{2-[3-(5-Fluoro-pyridin-2-yl)-5-methyl-isoxazol-4-yl]ethyl}-4-methyl-thiazole-5-carboxylic acid (tetrahydro-pyran-4-yl)-amide], the pKi under setting [1] is 8.28.

Take `CCCCc1noc(C)c1/C=C/c1nc(C)c(C(=O)O)s1` [Example 99, 2-[(E)-2-(3-Butyl-5-methyl-isoxazol-4-yl)-vinyl]-4-methyl-thiazole-5-carboxylic acid]: the pKi under setting [1] was 7.56.

Regarding `CCCCc1noc(C)c1CCc1nc(C)c(C(=O)NC2CCOC2)s1` (racemic) [Example 52, Rac-2-[2-(3-Butyl-5-methyl-isoxazol-4-yl)-ethyl]-4-methyl-thiazole-5-carboxylic acid (tetrahydro-furan-3-yl)-amide], the pKi under setting [1] was 7.82.

Take `Cc1onc(-c2ccccc2)c1COc1ncc(C(=O)NC2CCOCC2)s1` [Example 128, 2-(5-Methyl-3-phenyl-isoxazol-4-ylmethoxy)-thiazole-5-carboxylic acid (tetrahydro-pyran-4-yl)-amide]: under setting [1], the pKi was 8.74.

Regarding `Cc1onc(-c2ccc(F)cn2)c1CCc1ncc(C(=O)NC2CC2)s1` [Example 42, 2-{2-[3-(5-Fluoro-pyridin-2-yl)-5-methyl-isoxazol-4-yl]-ethyl}-thiazole-5-carboxylic acid cyclopropylamide], the pKi was 7.90.

As for `Cc1nc(CCc2conc2-c2ccccn2)sc1C(=O)NC1CCOCC1` [Example 19, 4-Methyl-2-[2-(3-pyridin-2-yl-isoxazol-4-yl)-ethyl]-thiazole-5-carboxylic acid (tetra-hydro-pyran-4-yl)-amide], the pKi under setting [1] is 7.06.

In the case of `Cc1onc(-c2ccccc2)c1CNc1ncc(C(=O)NC(C)C)s1` [Example 135, 2-[(5-Methyl-3-phenyl-isoxazol-4-ylmethyl)-amino]-thiazole-5-carboxylic acid isoprop-ylamide], the pKi under setting [1] is 8.05.
